Assays:
DEBS M6+TE (WT) = DEBS M6+TE (WT) (Saccharopolyspora erythraea, UniProt Q03133); assay: NADPH consumption assay; format: biochemical; settings: 400 mM phosphate pH 7.2, 25 °C
[1] = target: T1, MAT (malonyl-/acetyl transferase domain of murine FAS) (Mus musculus, UniProt P19096); assay: enzyme-coupled fluorometric transacylation assay; format: biochemical; settings: individual domains; acceptor DEBS ACP6 presumed
T1 sequence (P19096 488-816 limits assumed): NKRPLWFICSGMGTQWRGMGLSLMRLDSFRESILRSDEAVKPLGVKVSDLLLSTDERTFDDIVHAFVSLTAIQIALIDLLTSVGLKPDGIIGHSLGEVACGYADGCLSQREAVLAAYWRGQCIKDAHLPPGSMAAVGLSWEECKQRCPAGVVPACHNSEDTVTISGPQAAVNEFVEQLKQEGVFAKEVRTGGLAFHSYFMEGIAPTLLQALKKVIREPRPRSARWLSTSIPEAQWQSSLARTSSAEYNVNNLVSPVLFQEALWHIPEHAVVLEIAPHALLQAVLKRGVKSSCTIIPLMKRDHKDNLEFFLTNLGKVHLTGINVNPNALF

[2] = target: DEBS module 6 including its C-terminal TE domain (DEBS M6+TE), wildtype (Saccharopolyspora erythraea); assay: SEC

DEBS M6+TE (WT), sequence (Q03133 1470-3172 limits assumed): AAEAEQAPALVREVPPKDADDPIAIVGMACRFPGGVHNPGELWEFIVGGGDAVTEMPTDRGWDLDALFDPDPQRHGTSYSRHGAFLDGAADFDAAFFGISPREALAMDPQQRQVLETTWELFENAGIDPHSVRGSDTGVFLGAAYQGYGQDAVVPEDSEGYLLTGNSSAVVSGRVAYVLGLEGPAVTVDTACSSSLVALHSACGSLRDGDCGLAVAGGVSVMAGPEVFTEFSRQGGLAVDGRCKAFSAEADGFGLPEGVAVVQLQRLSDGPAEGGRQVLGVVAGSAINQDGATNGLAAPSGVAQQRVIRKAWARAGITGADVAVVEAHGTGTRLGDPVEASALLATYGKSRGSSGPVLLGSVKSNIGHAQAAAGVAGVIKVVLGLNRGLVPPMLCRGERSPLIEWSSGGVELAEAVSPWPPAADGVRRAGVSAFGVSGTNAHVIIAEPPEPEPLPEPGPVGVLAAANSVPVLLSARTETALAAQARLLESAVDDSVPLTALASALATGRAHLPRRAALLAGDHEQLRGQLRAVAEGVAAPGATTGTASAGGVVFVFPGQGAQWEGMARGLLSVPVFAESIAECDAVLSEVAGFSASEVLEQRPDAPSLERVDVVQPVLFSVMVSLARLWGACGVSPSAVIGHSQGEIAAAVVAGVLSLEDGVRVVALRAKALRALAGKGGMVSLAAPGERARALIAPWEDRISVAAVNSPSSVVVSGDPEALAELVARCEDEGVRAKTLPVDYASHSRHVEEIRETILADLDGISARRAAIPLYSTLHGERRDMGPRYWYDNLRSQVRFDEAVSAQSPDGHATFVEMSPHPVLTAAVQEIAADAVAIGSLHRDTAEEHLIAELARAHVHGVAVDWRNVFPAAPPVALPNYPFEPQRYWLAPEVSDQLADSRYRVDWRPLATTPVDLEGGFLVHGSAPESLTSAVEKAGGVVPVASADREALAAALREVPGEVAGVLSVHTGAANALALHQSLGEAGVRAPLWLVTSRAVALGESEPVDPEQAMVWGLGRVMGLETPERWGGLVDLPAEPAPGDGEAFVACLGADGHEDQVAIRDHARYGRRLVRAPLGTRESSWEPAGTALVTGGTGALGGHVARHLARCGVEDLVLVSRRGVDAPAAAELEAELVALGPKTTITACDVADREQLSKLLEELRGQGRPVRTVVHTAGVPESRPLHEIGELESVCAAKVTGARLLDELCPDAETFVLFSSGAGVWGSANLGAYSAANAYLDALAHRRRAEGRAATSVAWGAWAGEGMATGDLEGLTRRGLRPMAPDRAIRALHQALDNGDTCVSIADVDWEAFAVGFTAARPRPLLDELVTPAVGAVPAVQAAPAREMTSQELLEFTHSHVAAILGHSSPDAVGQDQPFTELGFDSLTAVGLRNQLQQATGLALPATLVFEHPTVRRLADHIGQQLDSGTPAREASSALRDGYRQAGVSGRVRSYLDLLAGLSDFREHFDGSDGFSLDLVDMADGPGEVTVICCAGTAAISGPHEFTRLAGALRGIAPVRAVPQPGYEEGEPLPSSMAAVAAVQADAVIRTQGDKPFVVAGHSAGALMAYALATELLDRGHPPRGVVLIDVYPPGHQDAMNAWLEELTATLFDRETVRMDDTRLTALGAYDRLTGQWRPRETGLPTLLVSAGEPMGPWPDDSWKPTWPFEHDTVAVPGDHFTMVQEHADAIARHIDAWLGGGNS
DEBS module 6 including its C-terminal TE domain (DEBS M6+TE), wildtype (domain or fragment), sequence (Q03133 2-3172): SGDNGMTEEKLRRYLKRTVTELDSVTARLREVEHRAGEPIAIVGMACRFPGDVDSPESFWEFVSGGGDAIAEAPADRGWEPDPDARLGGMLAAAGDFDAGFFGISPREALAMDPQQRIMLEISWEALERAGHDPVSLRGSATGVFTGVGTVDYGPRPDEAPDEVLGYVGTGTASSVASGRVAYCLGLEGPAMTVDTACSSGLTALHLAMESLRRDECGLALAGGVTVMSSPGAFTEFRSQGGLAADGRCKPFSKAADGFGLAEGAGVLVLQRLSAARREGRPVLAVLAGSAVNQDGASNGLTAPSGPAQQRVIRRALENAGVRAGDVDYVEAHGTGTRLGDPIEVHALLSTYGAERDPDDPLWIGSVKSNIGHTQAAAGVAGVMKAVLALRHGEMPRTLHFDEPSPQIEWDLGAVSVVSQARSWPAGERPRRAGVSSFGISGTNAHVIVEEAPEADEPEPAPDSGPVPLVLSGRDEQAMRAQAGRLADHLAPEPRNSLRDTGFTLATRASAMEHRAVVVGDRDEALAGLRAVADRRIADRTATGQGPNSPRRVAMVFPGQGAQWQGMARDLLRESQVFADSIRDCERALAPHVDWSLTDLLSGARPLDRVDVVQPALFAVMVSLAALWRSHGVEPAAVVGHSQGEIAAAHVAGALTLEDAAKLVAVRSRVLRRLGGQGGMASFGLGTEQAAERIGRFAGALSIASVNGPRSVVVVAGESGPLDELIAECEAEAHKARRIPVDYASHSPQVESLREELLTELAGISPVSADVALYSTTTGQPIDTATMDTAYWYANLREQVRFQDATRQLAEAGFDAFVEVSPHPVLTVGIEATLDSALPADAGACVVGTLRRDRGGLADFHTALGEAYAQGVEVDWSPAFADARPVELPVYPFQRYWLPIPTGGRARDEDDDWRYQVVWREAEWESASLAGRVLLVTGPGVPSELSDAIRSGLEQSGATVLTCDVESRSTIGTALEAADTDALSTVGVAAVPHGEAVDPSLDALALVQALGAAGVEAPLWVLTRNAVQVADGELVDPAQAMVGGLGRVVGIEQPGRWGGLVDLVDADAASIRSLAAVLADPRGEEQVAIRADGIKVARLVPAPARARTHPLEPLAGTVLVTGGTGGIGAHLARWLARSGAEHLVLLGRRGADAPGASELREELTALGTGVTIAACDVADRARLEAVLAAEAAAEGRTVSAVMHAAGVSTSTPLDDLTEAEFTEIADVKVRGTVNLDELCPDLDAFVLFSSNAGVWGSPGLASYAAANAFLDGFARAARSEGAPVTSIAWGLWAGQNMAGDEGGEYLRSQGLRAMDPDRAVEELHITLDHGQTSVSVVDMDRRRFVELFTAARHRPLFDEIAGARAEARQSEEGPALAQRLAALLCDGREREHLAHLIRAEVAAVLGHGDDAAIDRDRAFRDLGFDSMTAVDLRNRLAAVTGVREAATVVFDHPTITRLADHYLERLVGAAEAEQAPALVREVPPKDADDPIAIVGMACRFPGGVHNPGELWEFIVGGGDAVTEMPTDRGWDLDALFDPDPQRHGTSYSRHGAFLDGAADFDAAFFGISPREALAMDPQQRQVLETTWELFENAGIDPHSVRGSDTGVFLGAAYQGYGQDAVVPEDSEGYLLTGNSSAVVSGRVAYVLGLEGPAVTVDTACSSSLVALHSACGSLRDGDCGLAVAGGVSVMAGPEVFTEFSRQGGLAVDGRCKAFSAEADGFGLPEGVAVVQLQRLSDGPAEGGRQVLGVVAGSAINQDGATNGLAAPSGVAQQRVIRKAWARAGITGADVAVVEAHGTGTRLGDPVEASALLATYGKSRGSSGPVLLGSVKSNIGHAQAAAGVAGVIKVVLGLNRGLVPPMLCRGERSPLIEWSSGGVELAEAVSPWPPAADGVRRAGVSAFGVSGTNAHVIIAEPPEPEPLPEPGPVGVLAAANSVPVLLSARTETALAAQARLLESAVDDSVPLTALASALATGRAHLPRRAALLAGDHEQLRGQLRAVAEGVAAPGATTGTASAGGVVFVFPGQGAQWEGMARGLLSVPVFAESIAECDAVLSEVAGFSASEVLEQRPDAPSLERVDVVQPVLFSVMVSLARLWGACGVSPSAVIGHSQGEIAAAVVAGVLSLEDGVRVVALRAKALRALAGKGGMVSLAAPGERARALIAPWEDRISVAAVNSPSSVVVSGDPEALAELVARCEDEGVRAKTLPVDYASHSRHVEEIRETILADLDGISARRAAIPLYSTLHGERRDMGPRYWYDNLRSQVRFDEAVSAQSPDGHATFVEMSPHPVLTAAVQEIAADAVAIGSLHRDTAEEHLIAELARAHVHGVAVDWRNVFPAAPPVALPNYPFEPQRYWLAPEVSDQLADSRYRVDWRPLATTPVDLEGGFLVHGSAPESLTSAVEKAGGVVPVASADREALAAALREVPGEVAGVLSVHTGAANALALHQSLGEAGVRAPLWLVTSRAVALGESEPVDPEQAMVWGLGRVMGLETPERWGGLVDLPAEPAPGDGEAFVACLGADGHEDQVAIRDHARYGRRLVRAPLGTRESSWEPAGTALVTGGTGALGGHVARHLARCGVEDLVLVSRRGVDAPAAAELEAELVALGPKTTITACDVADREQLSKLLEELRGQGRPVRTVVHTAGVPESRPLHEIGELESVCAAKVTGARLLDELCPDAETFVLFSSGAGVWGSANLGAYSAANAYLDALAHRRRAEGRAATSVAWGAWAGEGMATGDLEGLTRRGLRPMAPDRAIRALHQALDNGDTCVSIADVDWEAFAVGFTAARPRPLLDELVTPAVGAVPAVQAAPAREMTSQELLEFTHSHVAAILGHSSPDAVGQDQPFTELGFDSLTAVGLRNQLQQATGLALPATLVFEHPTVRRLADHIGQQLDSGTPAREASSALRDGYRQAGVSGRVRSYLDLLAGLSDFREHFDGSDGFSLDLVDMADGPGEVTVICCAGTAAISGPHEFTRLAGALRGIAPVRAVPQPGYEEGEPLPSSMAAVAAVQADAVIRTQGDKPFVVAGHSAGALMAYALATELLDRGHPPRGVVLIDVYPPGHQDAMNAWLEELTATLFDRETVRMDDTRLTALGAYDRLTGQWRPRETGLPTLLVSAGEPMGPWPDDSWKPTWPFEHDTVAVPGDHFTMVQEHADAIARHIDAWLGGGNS

Question: For `CC[C@@H](O)[C@H](C)C(=O)SCCNC(C)=O` [compound 2, (2S,3R)-2-methyl-3-hydroxypentanoyl-N-acetylcysteamine thioester], which turnover rate (DEBS M6+TE (WT); MM-CoA, NADPH) is on record?
Answer: Turnover rates for the WT-, H1- and H2-mediated formation of TKLs

Question: For `CC(C)(COP(=O)(O)OP(=O)(O)OC[C@H]1O[C@@H](n2cnc3c(N)ncnc32)[C@H](O)[C@@H]1OP(=O)(O)O)[C@@H](O)C(=O)NCCC(=O)NCCSC(=O)C(F)C(=O)O` (mixture of isomers) [compound 1, F-Mal-CoA], which Km [1] is on record?
Answer: we observed excellent transfer kinetics of MAT for F-Mal-CoA

Question: “DEBS module 6 including its C-terminal TE domain (DEBS M6+TE), wildtype (domain or fragment)” was tested. Which stoichiometry N [2] did it give?
Answer: 2

Question: Which turnover rate (DEBS M6+TE (WT); diketide 2, NADPH) does the source give for `CC(C(=O)O)C(=O)SCCNC(=O)CCNC(=O)[C@H](O)C(C)(C)COP(=O)(O)OP(=O)(O)OC[C@H]1O[C@@H](n2cnc3c(N)ncnc32)[C@H](O)[C@@H]1OP(=O)(O)O` (some centres unmarked) [MM-CoA] here?
Answer: Turnover rates for the WT-, H1- and H2-mediated formation of TKLs

Question: For `CC(F)(C(=O)O)C(=O)SCCNC(=O)CCNC(=O)[C@H](O)C(C)(C)COP(=O)(O)OP(=O)(O)OC[C@H]1O[C@@H](n2cnc3c(N)ncnc32)[C@H](O)[C@@H]1OP(=O)(O)O` (mixture of isomers) [compound 17, F-MM-CoA], which Km [1] is on record?
Answer: the MAT showed excellent transfer kinetics for F-MM-CoA

Reference: PMC9832397 (Nature chemistry, 2022)
